Calls of active or inactive are those of the source. The rule behind the calls is not given here.
How the values were obtained:
[1] = (§1) Inhibition of RANKL-induced osteoclastogenesis in mouse RAW264 cells at 50 uM after 4 days by TRAP staining based assay relative to control; format: functional; details: RAW264.7, 96 h
RAW264 [2] = test: Inhibition of RANKL-induced osteoclastogenesis in mouse RAW264 cells after 4 days by TRAP staining based assay; format: functional, cell-based
[3] = Cytotoxicity against mouse RAW264 cells at 50 uM; format: cell-based; details: raw264, 50 µM
RAW264 [4] = test: as §1; format: functional

Row | SMILES | inhibition at 50 µM [1] | inhibition (RAW264 [2]) | Activity [3] | inhibition (RAW264 [4])
1 | C[C@]12CCC[C@](C)(C(=O)O)[C@@H]1CC[C@@]1(C)C3=C(CC[C@H]21)[C@H]1O[C@@H]3C[C@@H]1C(=O)O | 28% | – | – | –
2 | C[C@]12CCC[C@](C)(C(=O)O)[C@@H]1CC[C@@]1(C)C3=C(CC[C@H]21)[C@@H]1O[C@H]3C[C@@H]1C(=O)O | 70% | Dose-dependent effect | Non-Toxic | –
3 | C[C@]12CCC[C@](C)(C(=O)O)[C@@H]1CC[C@@]1(C)C3=C(CC[C@H]21)[C@@H]1C[C@@H](C(=O)O)[C@H]3O1 | 31% | – | – | –
4 | C[C@]12CCC[C@](C)(C(=O)O)[C@@H]1CC[C@@]1(C)C3=C(CC[C@H]21)[C@H]1C[C@H](C(=O)O)[C@@H]3O1 | 47% | – | – | –
5 | C[C@]12CCC[C@](C)(C(=O)O)[C@@H]1CC[C@@]1(C)c3cocc3CC[C@H]21 | – | – | – | inactive
